The values that follow are results of earlier work, collected in patent US11207317B2, “Methylnaltrexone nasal formulations, methods of making, and use thereof” (AptaPharma Inc., priority 2012, dated 2021).

This data set has as its system opioid-induced reduction in bowel motility. Conditions: healthy volunteers; intravenous or oral administration.

The structures appear in SMILES notation.

For `C[N@+]1(CC2CC2)CC[C@]23c4c5ccc(O)c4O[C@H]2C(=O)CC[C@@]3(O)[C@H]1C5` [methylnaltrexone, Methylnaltrexone], the “effect on opioid-induced reduction in bowel motility” value is recorded as “reverse opioid-induced reduction in bowel motility”.
